Experimental data from ChEMBL document CHEMBL1909046, “DrugMatrix in vitro pharmacology data”.

Assays:
[1] = biological target: Beta-2 adrenergic receptor (Homo sapiens, UniProt P07550); assay: DRUGMATRIX: Adrenergic beta2 radioligand binding (ligand: [3H] CGP-12177); format: cell membranes, CHO, Membrane; conditions: cho; Not Active = under 50% inhibition at 10 µM
[2] = DRUGMATRIX: GABAA, Flunitrazepam, Central radioligand binding (ligand: [3H] Flunitrazepam); format: cell membranes, Rattus norvegicus, Wistar, Brain, Membrane; conditions: Not Active = under 50% inhibition at 10 µM
Cathepsin G = biological target: T1, Cathepsin G (Homo sapiens, UniProt P08311); format: tissue-based; conditions: neutrophil;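 also: inhibition of Cathepsin G enzyme activity, tested on an AMC-conjugated peptide substrate; in other assays of this panel Not Active means under 50% inhibition at 10 µM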
T1 sequence (P08311 whole entry): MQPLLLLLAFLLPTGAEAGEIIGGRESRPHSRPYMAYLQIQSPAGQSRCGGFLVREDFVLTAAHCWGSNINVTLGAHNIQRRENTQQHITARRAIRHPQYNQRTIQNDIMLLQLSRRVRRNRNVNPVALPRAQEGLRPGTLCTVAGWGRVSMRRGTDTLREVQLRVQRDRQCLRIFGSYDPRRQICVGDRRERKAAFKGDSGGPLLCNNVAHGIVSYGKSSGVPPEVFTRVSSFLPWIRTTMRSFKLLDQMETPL

Neutrophil elastase = biological target: T2, Neutrophil elastase (Homo sapiens, UniProt P08246); format: tissue-based;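 also: inhibition of neutrophil elastase enzyme activity, measured with a p-nitroanilide-linked peptide substrate; in other assays of this panel Not Active means under 50% inhibition at 10 µM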
T2 sequence (P08246 whole entry): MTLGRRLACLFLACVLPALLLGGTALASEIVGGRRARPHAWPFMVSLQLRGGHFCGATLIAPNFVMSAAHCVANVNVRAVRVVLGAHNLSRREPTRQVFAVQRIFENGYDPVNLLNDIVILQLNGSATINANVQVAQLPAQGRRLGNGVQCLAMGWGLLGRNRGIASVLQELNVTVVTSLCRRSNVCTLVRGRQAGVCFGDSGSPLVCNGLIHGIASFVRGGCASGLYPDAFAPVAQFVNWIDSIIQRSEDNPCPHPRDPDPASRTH

Adenosine receptor A3 = biological target: T3, Adenosine receptor A3 (Homo sapiens, UniProt P0DMS8); format: cell membranes, CHO-K1, Membrane;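 also: radioligand binding assay with AB-MECA serving as the labeled ligand; in other assays of this panel Not Active means under 50% inhibition at 10 µM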
T3 sequence (P0DMS8 whole entry): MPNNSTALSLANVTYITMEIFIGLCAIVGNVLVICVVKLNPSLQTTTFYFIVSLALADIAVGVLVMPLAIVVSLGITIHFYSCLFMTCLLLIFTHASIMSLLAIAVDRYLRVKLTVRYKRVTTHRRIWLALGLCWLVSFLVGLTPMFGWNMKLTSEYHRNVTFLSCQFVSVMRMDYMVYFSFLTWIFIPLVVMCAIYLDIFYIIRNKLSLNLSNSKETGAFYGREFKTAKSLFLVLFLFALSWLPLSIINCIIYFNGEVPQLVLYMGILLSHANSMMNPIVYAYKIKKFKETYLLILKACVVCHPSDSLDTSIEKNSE

Molecule	IC50 [1]	IC50 [2]	Ki [2]	IC50 (Cathepsin G)	IC50 (Neutrophil elastase)	IC50 (Adenosine receptor A3; cho-k1)	IC50 (Adenosine receptor A3; read-out: IC50) [nM]	Ki (Adenosine receptor A3; read-out: Ki) [nM]	Ki [1]	Ki (Cathepsin G)	Ki (Neutrophil elastase)	IC50 (Adenosine receptor A3; cho-k1, read-out: IC50) [nM]	Ki (Adenosine receptor A3; cho-k1, read-out: Ki) [nM]	Ki (Adenosine receptor A3; cho-k1)	IC50 ([2]; read-out: IC50) [nM]	Ki ([2]; read-out: Ki) [nM]
Cn1c(=O)c2c(ncn2CC(O)CO)n(C)c1=O (stereo unspecified) [DYPHYLLINE]	Not Active	Not Active	Not Active	Not Active	Not Active	Not Active	–	–	–	–	–	–	–	–	–	–
O=C(O)c1cccnc1Nc1cccc(C(F)(F)F)c1 [NIFLUMIC ACID]	Not Active	Not Active	Not Active	Not Active	Not Active	Not Active	–	–	–	–	–	–	–	–	–	–
CC(C)c1cccc(C(C)C)c1O [PROPOFOL]	Not Active	Not Active	Not Active	Not Active	Not Active	Not Active	–	–	–	–	–	–	–	–	–	–
COC(=O)Nc1nc2ccc(C(=O)c3cccs3)cc2[nH]1 [NOCODAZOLE]	Not Active	Not Active	Not Active	Not Active	Not Active	Not Active	–	–	–	–	–	–	–	–	–	–
N=C(N)NC(=O)Cc1c(Cl)cccc1Cl [GUANFACINE]	Not Active	Not Active	Not Active	Not Active	Not Active	Not Active	–	–	–	–	–	–	–	–	–	–
CC(C)NCC(O)COc1cccc2[nH]ccc12 (stereo unspecified) [PINDOLOL]	–	Not Active	Not Active	Not Active	Not Active	Not Active	–	–	–	–	–	–	–	–	–	–
CC(=O)[C@@]1(O)CC[C@H]2[C@@H]3CCC4=CC(=O)CC[C@]4(C)[C@H]3CC[C@@]21C [HYDROXYPROGESTERONE]	Not Active	Not Active	Not Active	Not Active	Not Active	–	4730	2670	–	–	–	–	–	–	–	–
CC(=O)O[C@H]1C(=O)[C@@]2(C)[C@H]([C@H](OC(=O)c3ccccc3)[C@]3(O)C[C@H](OC(=O)[C@H](O)[C@@H](NC(=O)c4ccccc4)c4ccccc4)C(C)=C1C3(C)C)[C@]1(OC(C)=O)CO[C@@H]1C[C@@H]2O [PACLITAXEL]	Not Active	Not Active	Not Active	Not Active	Not Active	Not Active	–	–	–	–	–	–	–	–	–	–
CCCOc1ccc(C(=O)OCCN(CC)CC)cc1N [PROPARACAINE]	Not Active	Not Active	Not Active	Not Active	Not Active	Not Active	–	–	–	–	–	–	–	–	–	–
O=C(N/N=C/c1ccc([N+](=O)[O-])o1)c1cc([N+](=O)[O-])cc([N+](=O)[O-])c1O [NIFURSOL]	Not Active	Not Active	Not Active	Not Active	Not Active	Not Active	–	–	–	–	–	–	–	–	–	–
CC(=O)Oc1ccc(C(c2ccc(OC(C)=O)cc2)c2ccccn2)cc1 [BISACODYL]	Not Active	Not Active	Not Active	Not Active	Not Active	Not Active	–	–	–	–	–	–	–	–	–	–
CN(C)[C@@H]1C(O)=C(C(N)=O)C(=O)[C@@]2(O)C(O)=C3C(=O)c4c(O)ccc(Cl)c4[C@@](C)(O)[C@H]3C[C@@H]12 [CHLORTETRACYCLINE]	Not Active	Not Active	Not Active	Not Active	Not Active	Not Active	–	–	–	–	–	–	–	–	–	–
Nc1ccn([C@@H]2O[C@H](CO)[C@@H](O)[C@@H]2O)c(=O)n1 [CYTARABINE]	Not Active	Not Active	Not Active	Not Active	Not Active	Not Active	–	–	–	–	–	–	–	–	–	–
CCC1(CCC(C)C)C(=O)NC(=O)NC1=O [AMOBARBITAL]	Not Active	Not Active	Not Active	Not Active	Not Active	Not Active	–	–	–	–	–	–	–	–	–	–
AURANOFIN	Not Active	Not Active	Not Active	Not Active	Not Active	–	–	–	Not Active	Not Active	Not Active	1690	954	–	–	–
O=C/C=C/c1ccccc1	Not Active	Not Active	Not Active	Not Active	Not Active	Not Active	–	–	–	–	–	–	–	–	–	–
C=CCc1ccc(O)c(OC)c1 [EUGENOL]	Not Active	Not Active	Not Active	Not Active	Not Active	Not Active	–	–	–	–	–	–	–	–	–	–
COC1=C(OC)C(=O)C(CCCCCCCCCCO)=C(C)C1=O [IDEBENONE]	Not Active	Not Active	Not Active	Not Active	Not Active	Not Active	–	–	–	–	–	–	–	–	–	–

Molecule	IC50 [1]	IC50 [2]	Ki [2]	IC50 (Cathepsin G)	IC50 (Neutrophil elastase)	IC50 (Adenosine receptor A3; cho-k1)	IC50 (Adenosine receptor A3; read-out: IC50) [nM]	Ki (Adenosine receptor A3; read-out: Ki) [nM]	Ki [1]	Ki (Cathepsin G)	Ki (Neutrophil elastase)	IC50 (Adenosine receptor A3; cho-k1, read-out: IC50) [nM]	Ki (Adenosine receptor A3; cho-k1, read-out: Ki) [nM]	Ki (Adenosine receptor A3; cho-k1)	IC50 ([2]; read-out: IC50) [nM]	Ki ([2]; read-out: Ki) [nM]
Oc1cccc(O)c1O [PYROGALLOL]	Not Active	Not Active	Not Active	Not Active	Not Active	Not Active	–	–	–	–	–	–	–	–	–	–
C[C@]12C=CC(=O)C=C1CC[C@@H]1[C@@H]2[C@@H](O)C[C@@]2(C)[C@H]1CC[C@]2(O)C(=O)CO [PREDNISOLONE]	Not Active	Not Active	Not Active	Not Active	Not Active	Not Active	–	–	–	–	–	–	–	–	–	–
CC(=O)[C@H]1[C@H](C#N)C[C@H]2[C@@H]3CC=C4C[C@@H](O)CC[C@]4(C)[C@H]3CC[C@@]21C [PREGNENOLONE CARBONITRILE]	Not Active	Not Active	Not Active	Not Active	Not Active	Not Active	–	–	–	–	–	–	–	–	–	–
CC(C(=O)O)c1cccc(Oc2ccccc2)c1 (stereo unspecified) [FENOPROFEN]	Not Active	Not Active	Not Active	Not Active	Not Active	Not Active	–	–	–	–	–	–	–	–	–	–
NNc1nncc2ccccc12 [HYDRALAZINE]	Not Active	Not Active	Not Active	Not Active	Not Active	Not Active	–	–	–	–	–	–	–	–	–	–
O=C1O[C@H]([C@@H](O)CO)C(O)=C1O [ASCORBIC ACID]	Not Active	Not Active	Not Active	Not Active	Not Active	Not Active	–	–	–	–	–	–	–	–	–	–
NC(=O)C[S+]([O-])C(c1ccccc1)c1ccccc1 (stereo unspecified) [MODAFINIL]	Not Active	Not Active	Not Active	Not Active	Not Active	Not Active	–	–	–	–	–	–	–	–	–	–
CCN(CC)CCOCCC1=CCC2CC1C2(C)C (stereo unspecified) [MYRTECAINE]	Not Active	Not Active	Not Active	Not Active	Not Active	Not Active	–	–	–	–	–	–	–	–	–	–
COc1ccc2cc3[n+](cc2c1OC)CCc1cc2c(cc1-3)OCO2.[Cl-] [BERBERINE CHLORIDE]	Not Active	Not Active	Not Active	Not Active	Not Active	Not Active	–	–	–	–	–	–	–	–	–	–
GRAMICIDIN	Not Active	Not Active	Not Active	Not Active	Not Active	Not Active	–	–	Not Active	Not Active	Not Active	–	–	Not Active	–	–
COc1cc([C@@H]2c3cc4c(cc3[C@@H](O[C@@H]3O[C@@H]5CO[C@@H](C)O[C@H]5[C@H](O)[C@H]3O)[C@H]3COC(=O)[C@H]23)OCO4)cc(OC)c1O [ETOPOSIDE]	Not Active	Not Active	Not Active	Not Active	Not Active	Not Active	–	–	–	–	–	–	–	–	–	–
CCC1(C)CC(=O)NC1=O (stereo unspecified) [ETHOSUXIMIDE]	Not Active	Not Active	Not Active	Not Active	Not Active	Not Active	–	–	–	–	–	–	–	–	–	–
Cc1nnc2n1-c1ccc(Cl)cc1C(c1ccccc1)=NC2 [ALPRAZOLAM]	Not Active	–	–	Not Active	Not Active	Not Active	–	–	–	–	–	–	–	–	16.6	13.5
CC(C)=CCC/C(C)=C/CO [GERANIOL]	Not Active	Not Active	Not Active	Not Active	Not Active	Not Active	–	–	–	–	–	–	–	–	–	–
COc1ccc(C(=O)N2CCCC2=O)cc1	Not Active	Not Active	Not Active	Not Active	Not Active	Not Active	–	–	–	–	–	–	–	–	–	–
GENTAMICIN	Not Active	Not Active	Not Active	Not Active	Not Active	Not Active	–	–	Not Active	Not Active	Not Active	–	–	Not Active	–	–
CCCNCC(O)COc1ccccc1C(=O)CCc1ccccc1 (stereo unspecified) [PROPAFENONE]	–	Not Active	Not Active	Not Active	Not Active	Not Active	–	–	–	–	–	–	–	–	–	–
